Assay results published in US20050221456A1, “Use of indanoyl amide to stimulate secondary metabolism in Taxus sp” (Phyton Biotech, Inc., priority 2004, published 2005).

Assays:
Taxus chinensis cells [1] = experiment: Effect of 6-BII on taxane production in suspension culture (14 days); format: cell-based; conditions: for Baccatin III / Paclitaxel / Total taxanes: 14 days in production medium with NAA, MDCA, GLN, silver thiosulfate
Description: (§1) This experiment was carried out according to the following parameters. Taxus chinensis cells were cultivated as callus and then as suspended cells on growth medium (Medium A, Table B) according to the methods described above. After seven days of cultivation in this medium, the suspended cells were substantially separated from this medium and placed at approximately 20% (w/v) fresh cells into a basal production medium (Medium B, Table B) with an initial pH of 5.8. In addition to the ingredients listed in Table B, the medium comprised 20 micromol/l NAA, 20 micromol/l MDCA, 5 mmol/l GLN, and 50 micromol/l silver as a thiosulfate complex. The gas phase was controlled to oxygen at 90-97% of the levels in air and 2.5-6% CO2; the temperature was held at 25±2 degrees Celsius. The cells were cultivated in the dark and were agitated at 150-200 rpm for the duration of the experiment. After 14 days of cultivation in production medium, the culture was harvested for taxanes.

Taxus chinensis cells [2] = experiment: Effect of silver nitrate and 6-EII on taxane production (14 days); format: cell-based; conditions: silver as nitrate salt or thiosulfate complex
From the text: Taxus chinensis cells were cultivated as callus and then as suspended cells on growth medium (Table B, Medium A) according to the methods described above in Examples 1 and 2. After seven days of cultivation in this medium, the suspended cells were substantially separated from this medium and placed at ca. 20% (w/v) fresh cells into Medium B (Table B) at an initial pH of 5.8. In addition to the components listed in Table B, 20 micromol/l NAA, 20 micromol/l MDCA, 5 mmol/l GLN, MJS or 6-EII and silver as a nitrate salt or thiosulfate complex were added to the medium at various levels. The gas phase was controlled to oxygen at 90-97% of the levels in air and CO2 at 2.5-6%; the temperature was held at 25±2 degrees Celsius. The cells were cultivated in the dark and were agitated at 150-200 rpm for the duration of the experiment. After 14 days of cultivation in production medium, the culture was harvested for taxanes.

Taxus chinensis cells [3] = experiment: Effect of 6-EII in combination with other medium ingredients on taxane yield (14 days); format: cell-based
Description: This experiment was carried out according to the following parameters. Taxus chinensis cells were cultivated as callus and then as suspended cells on growth Medium A (Table B), according to the methods described above. After seven days of cultivation in this medium, the suspended cells were substantially separated from this medium and placed at approximately 20% (w/v) fresh cells into a basal production medium (Medium B, Table B) with an initial pH of 5.8. In addition to the components listed in Medium B, the medium additionally comprised 5 millimol/l glutamine. The gas phase was controlled to oxygen at 90-97% of the value in air and 2.5-6% CO2; the temperature was held at 25±2 degrees Celsius. The cells were cultivated in the dark and were agitated at 150-200 rpm for the duration of the experiment. After 14 days of cultivation in production medium, the culture was harvested for taxanes.

Taxus cells = experiment: Batch addition of 6-EII in combination with other medium components, taxane production; format: cell-based; conditions: batch mode
Description: Taxus cells were cultivated using procedures similar to those used for Example 2. The media were composed of different combinations of 6-EII (or methyl jasmonate-MJS), NAA, SLTS, MDCA and Glutamine. All ingredients were added in a batch mode, i.e., all at once.

Taxus chinensis cells [4] = experiment: Fed batch addition of 6-EII, taxane production in Taxus chinensis suspension culture (12 days); format: cell-based; conditions: for Baccatin III / Paclitaxel: harvest after 12 days in production medium; for Total: total taxanes, harvest after 12 days
From the text: The medium also contains an indanoyl amide as described in the present application, optionally in combination with one or more jasmonic acid-related substance, and these materials may be added at the beginning of the culture, after the exponential growth phase, or intermittantly throughout the culture period. The other ingredients of the medium may be added all at one time or at different times during the cultivation and may be fed continuously or intermittently. The ingredients may be added either before or after the inclusion of plant cells in the culture broth. Further, nutrients or other ingredients may be additionally added during cultivation, if deemed useful. Optionally, the medium may be changed after a suitable period of cultivation whereby the cells are freshly exposed to a medium containing similar ingredients as described above. Such changes could involve changes to the amounts of sugars such as glucose, fructose, sucrose, maltose, etc., nitrogen sources such as nitrate, ammonium, or amino acids or casamino acids, etc. After a period of cultivation, the culture is harvested and the levels of taxanes are quantified using HPLC and specific taxanes are identified using LC/MS/MS. Taxanes can be recovered from these cultures by appropriate extraction and purification procedures. For Experiments 2-8, Taxus cells were cultivated as callus cultures on solid medium and then further cultivated as suspensions of cell aggregates in liquid medium. Although taxanes can be produced by cultivation on solid medium, the use of liquid medium is preferred. The temperature of cultivation was controlled between 20 and 30 degrees Celsius. This experiment was carried out according to the following parameters. […] Taxus chinensis cells were cultivated as callus and then as suspended cells in growth medium (Medium A shown in Table B) containing 1% maltose and B5 salts according to the methods described above. After seven days of cultivation in this medium, the suspended cells were substantially separated from this medium and placed at about 20% (w/v) fresh cells into a production medium consisting of about 20% (v/v) spent growth medium and 80% (v/v) basal production medium (Medium B shown in Table B, but 1.25-fold concentrated) with an initial pH of 5.8 and containing 20 micromol/l MDCA and 50 micromol/l SLTS (Silver Thiosulfate). […] The gas phase was controlled to 25% oxygen and 4.5% CO2 (balance nitrogen) and the temperature was held at 25±2 degrees Celsius. The cells were cultivated in the dark and were agitated at 100-150 rpm for the duration of the experiment. After 12 days of cultivation in production medium, the culture was harvested for taxanes.

Taxus chinensis cells [5] = experiment: Effect of 1-OII on accumulation of taxanes by Taxus cell suspension culture (14 days); format: cell-based; conditions: for Baccatin III / Paclitaxel / Total taxanes: 14 days in production medium with NAA, MDCA, GLN, silver thiosulfate
Description: as §1, with “ca.” for “approximately”, “also contained” for “comprised”, “value” for “levels”

[6] = tested on: touch-sensitive tendrils of Bryonia diocia; conditions: quoted from Schuler et al. WO 02/55480; cited from earlier work
tendril coiling = conditions: quoted from Haider et al.; cited from earlier work
[7] = tested on: paclitaxel and taxanes biosynthesis; conditions: teaching of EP 727492 (Yukimune et al.); cited from earlier work
[8] = tested on: Eschscholzia californica Cell Cultures; conditions: compared with the octadecanoids or coronatine; quoted from Haider et al.; cited from earlier work
[9] = cumulative 12-day fed batch dose 20 micromol/l
[10] = cumulative 12-day fed batch dose 50 micromol/l
[11] = cumulative 12-day fed batch dose 75 micromol/l
[12] = cumulative 12-day fed batch dose 100 micromol/l
[13] = cumulative 12-day fed batch dose 30 micromol/l

6-Bromoindanoyl isoleucine [6-BII]
induction of taxanes production (Taxus chinensis cells [1]; T. chinensis cell cultures): effective inducer of taxanes production
Baccatin III (Taxus chinensis cells [1]; dose 5 micromol/l): 92 mg/L
Paclitaxel (Taxus chinensis cells [1]; dose 5 micromol/l): 235 mg/L
Total taxanes (Taxus chinensis cells [1]; dose 5 micromol/l): 423 mg/L
Baccatin III (Taxus chinensis cells [1]; dose 20 micromol/l): 114 mg/L
Paclitaxel (Taxus chinensis cells [1]; dose 20 micromol/l): 230 mg/L
Total taxanes (Taxus chinensis cells [1]; dose 20 micromol/l): 441 mg/L
Baccatin III (Taxus chinensis cells [1]; dose 50 micromol/l): 174 mg/L
Paclitaxel (Taxus chinensis cells [1]; dose 50 micromol/l): 254 mg/L
Total taxanes (Taxus chinensis cells [1]; dose 50 micromol/l): 580 mg/L
Baccatin III (Taxus chinensis cells [1]; dose 100 micromol/l): 313 mg/L
Paclitaxel (Taxus chinensis cells [1]; dose 100 micromol/l): 360 mg/L
Total taxanes (Taxus chinensis cells [1]; dose 100 micromol/l): 962 mg/L
Baccatin III (Taxus chinensis cells [1]; dose 200 micromol/l): 307 mg/L
Paclitaxel (Taxus chinensis cells [1]; dose 200 micromol/l): 375 mg/L
Total taxanes (Taxus chinensis cells [1]; dose 200 micromol/l): 1060 mg/L
Baccatin III (Taxus chinensis cells [1]; dose 500 micromol/l): 1 mg/L
Paclitaxel (Taxus chinensis cells [1]; dose 500 micromol/l): 0 mg/L
Total taxanes (Taxus chinensis cells [1]; dose 500 micromol/l): 105 mg/L

6-ethyl-indanoyl-isoleucine [6-EII]
interaction with silver on taxane production (Taxus chinensis cells [2]): act synergistically
taxane yield, 6-EII by itself (Taxus chinensis cells [3]; 6-EII 5-500 micromol/l, by itself): increase in taxane yield
taxane yield, combined with NAA (Taxus chinensis cells [3]; 6-EII with 20 micromol/l NAA): yield improved by a significantly higher amount
taxane yield, combined with NAA and silver (Taxus chinensis cells [3]; 6-EII with 20 micromol/l NAA and 50 micromol/l silver (thiosulfate complex)): yield further increased
taxane yield, combined with NAA, silver and MDCA (Taxus chinensis cells [3]; 6-EII with 20 micromol/l NAA, 50 micromol/l silver and 20 micromol/l MDCA): yield increased even further
activity in improving taxane production compared with MJS (Taxus cells; all ingredients added at once): comparable activity in improving taxane production
interaction with auxin-type growth regulator NAA on taxane production (Taxus cells; combined with NAA): interact positively to improve taxane production
interaction with glutamine on taxane production (Taxus cells; combined with glutamine): interact favorably to improve taxane production
interaction with silver on overall production of taxanes (Taxus cells; combined with silver (SLTS)): works synergistically with silver to increase overall production of taxanes
effect on baccatin-III versus paclitaxel production (Taxus cells; with silver): improve baccatin-III production without reducing the amount of paclitaxel produced
activity on taxane production compared with methyl jasmonate (Taxus chinensis cells [4]; 12-day fed batch treatment): comparable activity
Baccatin III (Taxus chinensis cells [4]; [9]): 159 mg/L
Paclitaxel (Taxus chinensis cells [4]; [9]): 443 mg/L
Baccatin III (Taxus chinensis cells [4]; [10]): 358 mg/L
Paclitaxel (Taxus chinensis cells [4]; [10]): 495 mg/L
Baccatin III (Taxus chinensis cells [4]; [11]): 605 mg/L
Paclitaxel (Taxus chinensis cells [4]; [11]): 556 mg/L
Baccatin III (Taxus chinensis cells [4]; [12]): 616 mg/L
Paclitaxel (Taxus chinensis cells [4]; [12]): 557 mg/L
Total (Taxus chinensis cells [4]; [9]): 694 mg/L
Total (Taxus chinensis cells [4]; [10]): 1301 mg/L
Total (Taxus chinensis cells [4]; [11]): 1693 mg/L
Total (Taxus chinensis cells [4]; [12]): 1702 mg/L

CC[C@H](C)[C@H](NC(=O)c1cccc2c1CCC2=O)C(=O)OC [1-OII, 1-oxo-indane-carboxy-(L)-isoleucine-methyl ester amide]
induction of taxanes production (Taxus chinensis cells [5]; Taxus suspension culture): effective inducer of taxanes production
Baccatin III (Taxus chinensis cells [5]; dose 5 micromol/l): 50 mg/L
Paclitaxel (Taxus chinensis cells [5]; dose 5 micromol/l): 192 mg/L
Total taxanes (Taxus chinensis cells [5]; dose 5 micromol/l): 300 mg/L
Baccatin III (Taxus chinensis cells [5]; dose 20 micromol/l): 72 mg/L
Paclitaxel (Taxus chinensis cells [5]; dose 20 micromol/l): 248 mg/L
Total taxanes (Taxus chinensis cells [5]; dose 20 micromol/l): 400 mg/L
Baccatin III (Taxus chinensis cells [5]; dose 50 micromol/l): 112 mg/L
Paclitaxel (Taxus chinensis cells [5]; dose 50 micromol/l): 349 mg/L
Total taxanes (Taxus chinensis cells [5]; dose 50 micromol/l): 580 mg/L
Baccatin III (Taxus chinensis cells [5]; dose 100 micromol/l): 242 mg/L
Paclitaxel (Taxus chinensis cells [5]; dose 100 micromol/l): 409 mg/L
Total taxanes (Taxus chinensis cells [5]; dose 100 micromol/l): 822 mg/L
Baccatin III (Taxus chinensis cells [5]; dose 200 micromol/l): 375 mg/L
Paclitaxel (Taxus chinensis cells [5]; dose 200 micromol/l): 407 mg/L
Total taxanes (Taxus chinensis cells [5]; dose 200 micromol/l): 1055 mg/L
Baccatin III (Taxus chinensis cells [5]; dose 500 micromol/l): 45 mg/L
Paclitaxel (Taxus chinensis cells [5]; dose 500 micromol/l): 67 mg/L
Total taxanes (Taxus chinensis cells [5]; dose 500 micromol/l): 368 mg/L

CCc1cc2c(c(C(=O)N[C@H](C(=O)OC)[C@@H](C)CC)c1)CCC2=O [6-ethyl-1-oxo-indanoyl isoleucine methyl ester]
elicitation of the coiling reaction of tendrils [6]: potent elicitor

CCC1CC1(NC(=O)C1=C[C@H](CC)C[C@@H]2C(=O)CC[C@H]12)C(=O)O (some centres unmarked) [Coronatine]
induction of tendril coiling (tendril coiling): strong inducers of tendril coiling
induction of paclitaxel and taxanes biosynthesis [7]: shown to induce paclitaxel and taxanes biosynthesis

CC/C=C\CC1C(=O)CCC1CC(=O)OC (centres unmarked) [MJS, methyl jasmonate, reference compound]
activation of benzo[c]phenanthridine alkaloid accumulation [8]: much more effective
Baccatin III (Taxus chinensis cells [1]; dose 45 micromol/l): 154 mg/L
Paclitaxel (Taxus chinensis cells [1]; dose 45 micromol/l): 574 mg/L
Total taxanes (Taxus chinensis cells [1]; dose 45 micromol/l): 912 mg/L
Baccatin III (Taxus chinensis cells [4]; [13]): 273 mg/L
Paclitaxel (Taxus chinensis cells [4]; [13]): 490 mg/L
Total (Taxus chinensis cells [4]; [13]): 1410 mg/L
Baccatin III (Taxus chinensis cells [5]; dose 45 micromol/l): 226 mg/L
Paclitaxel (Taxus chinensis cells [5]; dose 45 micromol/l): 432 mg/L
Total taxanes (Taxus chinensis cells [5]; dose 45 micromol/l): 854 mg/L
